According to ChEMBL document CHEMBL1141438, “Securinega alkaloids from the wood of Securinega suffruticosa var. amamiensis” (J Nat Prod, 2007):
≈ marks a conversion by molar mass, not a printed value.

How the values were obtained:
L1210 = assay: Cytotoxicity against mouse L1210 cells; type: functional, cell-based
KB = assay: Cytotoxicity against human KB cells; type: functional, cell-based

O=C1C=C2C=C[C@@H]3C[C@@]2(O1)[C@H]1C[C@@H](O)CCN31
IC50 (L1210): 3.7 µg/mL (≈ 15.9 µM)
IC50 (KB): 3 µg/mL (≈ 12.9 µM)

O=C1C=C2C=C[C@@H]3C[C@@]2(O1)[C@@H]1CCCCN1O3 [PHYLLANTIDINE]
IC50 (L1210): > 5 µg/mL
IC50 (KB): > 5 µg/mL

CO[C@H]1CCN2[C@@H](C1)[C@]13C[C@H]2[C@@H](OC)CC1=CC(=O)O3 [SECURINEGA AMAMINE B]
IC50 (L1210): > 5 µg/mL
IC50 (KB): > 5 µg/mL

CO[C@H]1CC2=CC(=O)O[C@@]23C[C@@H]1N1CCCC[C@@H]13 [SECURINEGA AMAMINE C]
IC50 (L1210): > 5 µg/mL
IC50 (KB): > 5 µg/mL

CO[C@H]1CCN2O[C@@H]3C=CC4=CC(=O)O[C@]4(C3)[C@@H]2C1 [SECURINEGA AMAMINE D]
IC50 (L1210): > 5 µg/mL
IC50 (KB): > 5 µg/mL

O=C1C=C2C=C[C@@H]3C[C@@]2(O1)[C@H]1CCCCN31 [SECURININE]
IC50 (L1210): 1.9 µg/mL (≈ 8.74 µM)
IC50 (KB): 2.2 µg/mL (≈ 10.1 µM)
